Experimental data reported in patent US12558343B2, “Medical use of icaritin” (Lunan Pharmaceutical Group Corporation, priority 2020, dated 2026).
Read-outs that look alike come from different tables or passages of the source.

What was measured:
[1] = tested on: platelet aggregation induced by adenosine diphosphate; assay: In-vitro platelet aggregation in platelet-rich plasma induced by adenosine diphosphate; assay type: cell-based, domestic rabbits; settings: rabbit PRP, ADP 25 μmol/L, vs 1% dimethyl sulfoxide control
Procedure: After domestic rabbits were locally anesthetized with procaine, common carotid artery was surgically separated, blood was collected and anticoagulated with 3.8% sodium citrate, the anticoagulated blood was centrifuged at 800 r/min for 10 min to prepare platelet-rich plasma (PRP), the remaining part was centrifuged at […] for 10 min to prepare platelet-poor plasma (PPP), and a platelet aggregation experiment was performed. 265 μL of PRP and 30 μL of icaritin were added to a test tube (to enable final concentrations of the icaritin to be 0.1 mmol/L, 0.5 mmol/L, and 5 mmol/L separately), incubation was performed for 5 min, 5 μL of adenosine diphosphate (at a final concentration of 25 μmol/L) was added as an inducer, and a maximum aggregation rate within 5 min was observed and recorded. 1% by mass of dimethyl sulfoxide was used as a control and a promoting effect of the icaritin of each concentration on platelet aggregation induced by adenosine diphosphate was observed.

[2] = tested on: prolonged bleeding time caused by aspirin; assay: Tail-cut bleeding time in mice, prolonged by aspirin; assay type: in vivo, ICR mice; settings: aspirin 20 mg/kg i.g.
Procedure: According to the body weight on the last day of the quarantine, the male and female animals were divided into six groups by a simplified random method, namely, a normal group (C), a model group (V), icaritin low-, medium- and high-dose groups (2, 6, and 18 mg/kg, L, M, H) and a positive control drug group (200 mg/kg of etamsylate, P).
(§1) After 15 min of the modeling, the tails of the mice were cut and bleeding time of each mouse was measured.

[3] = mouse, in vivo
Procedure: After the grouping, the mice in the normal group and the model group were intragastrically administrated with 10 ml/kg of an icaritin solvent which was prepared by adding 12 g of hypromellose E5 and 0.1 g of sodium lauryl sulfate into 1 L of water. […] One hour after the last pre-administration, the mice in the model group and each administration group were injected with 150 U/kg of a heparin sodium injection through a tail vein to establish a model, and the mice in the normal group were injected with 10 ml/kg of a sodium chloride injection through a tail vein.
After the bleeding time was detected, the mice were anesthetized with sodium pentobarbital, blood was collected from an abdominal cardinal vein, and indicators of blood routine examination and four coagulation indicators (prothrombin time, thromboplastin time, thrombin time, and fibrinogen) were detected.

[4] = tested on: prolonged bleeding time caused by heparin sodium; assay: Tail-cut bleeding time in mice, prolonged by heparin sodium; assay type: in vivo, ICR mice; settings: heparin sodium 150 U/kg i.v.
Excerpt: 72 ICR mice aged 5-6 weeks, weighing 19-21 g, and half male and half female were selected. The mice were quarantined for 7 days after entering a laboratory and healthy mice were selected as test animals. The mice were weighed on first and last days of quarantine. According to the body weight on the last day of the quarantine, the male and female animals were divided into six groups by a simplified random method, namely, a normal group (C), a model group (V), low-, medium- and high-dose icaritin groups (2, 6, and 18 mg/kg, L, M, H) and a positive control drug group (200 mg/kg of etamsylate, P).
as §1

[5] = tested on: platelets (activation induced by adenosine diphosphate); assay: Platelet activation induced by adenosine diphosphate, flow cytometry (CD62p/CD61), blood of dosed rats; assay type: in vivo, SD rats; settings: for Activation rate of platelets activated by adenosine diphosphate, Basic value / Spontaneous activation rate: before administration; for Spontaneous activation rate: no adenosine diphosphate; for Activation-promoting rate: after vs basic value; for Activation rate of platelets activated by adenosine diphosphate, After administration: 20 min after last administration
Procedure: 0.5 mL of blood was collected from the orbit of the rat and 3.8% sodium citrate was added for anticoagulation (a ratio of blood to anticoagulant was 9:1) to prepare anticoagulated blood. 50 μL of anticoagulated blood was taken from each animal for determination of spontaneous platelet activation rate; and another 50 μL of anticoagulated blood was taken and 50 μL of adenosine diphosphate with a final concentration of 10 μmol was added for activation. 1.0-1.5 μL of each of CD62pPE/Cy7 and CD61PE was added to double-label the 2 anticoagulated blood, CD61 was used to label all the platelets and CD62p was used to label the activated platelets. […] The rats were double-labeled with G2a-PE/Cy7 and G-PE […] as a control. Each tube containing the treated blood was incubated at 4° C. in a dark place for 20 min; and 0.5 mL of 4% paraformaldehyde was added to fix for 10 min. 50 μL of the fixed blood sample was taken and diluted with 1 mL of a diluent, and the diluted sample was analyzed on a flow cytometer. Platelet populations were delineated in a CD61PE/Side Angle Light Scattering (SSC) two-parameter scatterplot, 5,000 platelets were counted, the number of CD61 and CD62p-positive cells was further counted in a CD61/CD62p scatterplot, and a percentage of a positive expression rate of CD62p in an expression rate of CD61 reflected a platelet activation rate (%).
Twenty-four rats were taken and divided into 3 groups with 8 rats in each group. […] 1.0 mL of blood was collected from the orbits before administration and 20 min after a last administration, wherein 0.5 mL was used for a blood routine examination and 0.5 mL was used to prepare anticoagulated blood. The blood was treated and analyzed on the flow cytometer according to the detection method of platelet activation by flow cytometry. An activation rate of platelets activated by adenosine diphosphate (basic value) before administration and an activation rate of platelets activated by adenosine diphosphate after administration were compared. At the same time, 50 μL of anticoagulated blood was taken from the rats before administration, adenosine diphosphate was not added, and a spontaneous activation rate of the anticoagulated blood of animals was measured using the same method. The animals were fasted for 16-24 h before each blood sampling.

[6] = group H, 18 mg/kg i.g. once a day 5 days
[7] = group L, 2 mg/kg i.g. once a day 5 days, tail cut 15 min after modeling
[8] = group M, 6 mg/kg i.g. once a day 5 days

Number of erythrocytes ([3]; 2 mg/kg): 7.109 ± 0.656 10^12/L | Number of leukocytes ([3]; 2 mg/kg): 1.895 ± 0.207 10^9/L | Number of platelets ([3]; 2 mg/kg): 1046 ± 136 10^9/L | Number of erythrocytes ([3]; 6 mg/kg): 7.111 ± 0.634 10^12/L | Number of leukocytes ([3]; 6 mg/kg): 1.934 ± 0.199 10^9/L | Number of platelets ([3]; 6 mg/kg): 1110 ± 128 10^9/L | Number of erythrocytes ([3]; 18 mg/kg): 7.090 ± 0.761 10^12/L | Number of leukocytes ([3]; 18 mg/kg): 1.888 ± 0.223 10^9/L | Number of platelets ([3]; 18 mg/kg): 1059 ± 170 10^9/L
Structure (SMILES): COc1ccc(-c2oc3c(CC=C(C)C)c(O)cc(O)c3c(=O)c2O)cc1 [Icaritin]
Aggregation-promoting rate ([1]; 0.1 mmol/L): 23.3 ± 4.5% | Aggregation-promoting rate ([1]; 0.5 mmol/L): 38.9 ± 8.7% | Aggregation-promoting rate ([1]; 5 mmol/L): 52.2 ± 9.0% | Bleeding time [2, 6]: 16.7 ± 7.2^$ $ & min | Bleeding time [2, 7]: 28.4 ± 9.8^$ min | Bleeding time [2, 8]: 24.7 ± 7.3^$ min | Bleeding time [4, 6]: 15.9 ± 6.6^$ $ & min | Bleeding time [4, 7]: 26.4 ± 8.8^$ min | Bleeding time [4, 8]: 22.7 ± 9.1^$ min | Activation rate of platelets activated by adenosine diphosphate, Basic value ([5]; 3 mg/kg group): 44.02 ± 11.21% | Spontaneous activation rate ([5]; 3 mg/kg group): 0.60 ± 0.11% | Activation-promoting rate ([5]; 3 mg/kg i.g. 3 days): 32.12% | Activation rate of platelets activated by adenosine diphosphate, After administration ([5]; 3 mg/kg i.g. once a day 3 days): 58.16 ± 13.41% | Activation rate of platelets activated by adenosine diphosphate, Basic value ([5]; 6 mg/kg group): 47.19 ± 13.12% | Spontaneous activation rate ([5]; 6 mg/kg group): 0.59 ± 0.20% | Activation-promoting rate ([5]; 6 mg/kg i.g. 3 days): 38.22% | Activation rate of platelets activated by adenosine diphosphate, After administration ([5]; 6 mg/kg i.g. once a day 3 days): 65.23 ± 16.78% | Activation rate of platelets activated by adenosine diphosphate, Basic value ([5]; 18 mg/kg group): 50.34 ± 19.22% | Spontaneous activation rate ([5]; 18 mg/kg group): 0.61 ± 0.14% | Activation-promoting rate ([5]; 18 mg/kg i.g. 3 days): 55.84% | Activation rate of platelets activated by adenosine diphosphate, After administration ([5]; 18 mg/kg i.g. once a day 3 days): 78.45 ± 20.22%
